Data from publication PMC3458012, “Gliadin Peptides Induce Tissue Transglutaminase Activation and ER-Stress through Ca^2+ Mobilization in Caco-2 Cells” (PLoS ONE, 2012).
Ends that are not written are not given here.

Key:
intracellular tTG [1] = assay: In situ tTG transamidating activity, pentylamine-biotin incorporation, microscopy; format: cell-based; conditions: Caco-2 cells; for In situ tTG crosslinking activity (fluorescence of pentylamine-biotin incorporation): 30 min, complete medium, peptides 20 µg/ml, ionomycin 10 µM, THP 1 µM, 0.5 mM pentylamine-biotin
Experimental: (§1) In situ tTG activity was visualized by using the tTG substrate pentylamine-biotin (Euroclone, Milan, Italy) as reported elsewhere. Caco-2 cells were treated for 30 min with 10 µM ionomycin (Sigma-Aldrich, Milan, Italy), or with different amounts of gliadin peptides, or with 1 µM THP, in the presence of 0.5 mM pentylamine-biotin, before being processed for microscopy observation. To visualize biotin-labeled p31–43 and p57–68 in the cells, peptides needed to be used at a concentration of 0.2 mM. […] Pentylamine-biotin was also used to quantify the tTG transamidating activity by a microplate assay. Briefly, after 30 min of treatment with 20 µg/ml gliadin peptides, or with 1 µM THP, cells were lysed and proteins (25 µg) were coated into the wells of a 96-well plate. The wells were blocked with 10% bovine serum albumin then incubated with 1∶5000 peroxidase-conjugated streptavidin (Euroclone) in 5% bovine serum albumin. To reveal peroxidase activity, 3,3′,5,5′-tetramethylbenzidine (Sigma-Aldrich, Milan, Italy) was added to each well and, after stopping the reaction with H2SO4, absorbances were read at 450 nm.

intracellular tTG [2] = assay: Microplate assay of tTG transamidating activity on cell lysates; format: cell-based; conditions: Caco-2 cells
Experimental: as §1

GRP78 [3] = assay: GRP78 mRNA by real-time RT-PCR; format: cell-based, human; conditions: Caco-2 cells, 24 h, peptides 20 µg/ml, THP 1 µM, normalized to GAPDH
GRP78 [4] = assay: GRP78 protein level by western blot; format: cell-based; conditions: Caco-2 cells, 24 h, THP 1 µM, normalized to tubulin
Experimental: (§2) Cells were washed with phosphate-buffered saline solution and mechanically harvested in lysis buffer, consisting of 20 mM Tris-HCl, pH 7.5, 150 mM NaCl, 1 mM EDTA, 1 mM dithiotreitol, 0.1% sodium dodecyl sulphate, 1% triton X-100, 1 mM ortovanadate, and inhibitors cocktail (Sigma-Aldrich). After 30 min of incubation on ice, cell extracts were centrifuged at 12,000 g for 30 min at 4°C, to remove cell debris, then 75 µg of total proteins were separated by 10% sodium dodecyl sulphate-polyacrylamide gel electrophoresis and transferred to a membrane. To detect tTG, the blot was treated as described elsewhere. To detect GRP78 and CHOP, the blots were treated with 5% skim milk in phosphate-buffered saline overnight at 4°C, then incubated for 2 h with an anti-GRP78 rabbit polyclonal antibody (H-129) (1∶500; Santa Cruz, CA, USA), or with an anti-CHOP mouse monoclonal antibody (1∶1,500; Santa Cruz), respectively, in phosphate-buffered saline containing 0.1% tween-20. After washing, the blots were incubated for 1 h at room temperature with an anti-rabbit-peroxidase secondary antibody (1∶10,000; Bio-Rad Laboratories), or with an anti-mouse-peroxidase secondary antibody (1∶10,000; Bio-Rad Laboratories), respectively.

CHOP [5] = assay: CHOP mRNA by real-time RT-PCR; format: cell-based, human; conditions: Caco-2 cells, 24 h, peptides 20 µg/ml, THP 1 µM, normalized to GAPDH
CHOP [6] = assay: CHOP protein level by western blot; format: cell-based; conditions: Caco-2 cells, 24 h, peptides 20 µg/ml, THP 1 µM, normalized to tubulin
Experimental: as §2

Caco-2 cells = format: cell-based
Experimental: Intracellular Ca^2+ concentration ([Ca^2+]i) was measured in Caco-2 cells by single cell computer-assisted videoimaging using the Ca^2+ indicator Fura-2 acetoxymethyl ester, as previously described, [22]. Gliadin peptides were loaded at concentrations between 0.2 and 20 µg/ml for 30 min at 37°C in normal Krebs solution containing the following (in mM): 5.5 KCl, 160 NaCl, 1.2 MgCl2, 1.5 CaCl2, 10 glucose, and 10 Hepes-NaOH, pH 7.4. To selectively deplete intracellular Ca^2+ stores, experiments were performed in the presence of thapsigargin (THP) (1 µM), an irreversible and selective inhibitor of the sarco(endo)plasmic reticulum Ca^2+ ATPase, and in the presence of the mitochondrial uncoupler carbonylcyanide-p-trifluoromethoxyphenylhydrazone (FCCP) (300 nm).

C/C=C(/C)C(=O)O[C@H]1C(C)=C2[C@H]([C@@H]1OC(=O)CCCCCCC)[C@@](C)(OC(C)=O)C[C@H](OC(=O)CCC)[C@@]1(O)[C@H]2OC(=O)[C@@]1(C)O [THP, thapsigargin]
In situ tTG crosslinking activity (fluorescence of pentylamine-biotin incorporation) (intracellular tTG [1]): sufficient to activate intracellular tTG
In situ tTG activation in Ca2+-free medium (intracellular tTG [1]; phosphate-buffered saline without Ca2+ and Mg2+): sufficient to activate intracellular tTG
Increase of tTG activity versus cells exposed to pentylamine-biotin alone (intracellular tTG [2]; 30 min, peptides 20 µg/ml or THP 1 µM, 25 µg lysate, absorbance 450 nm, at least 3 experiments in triplicate): similar
Increase of GRP78 mRNA expression with respect to untreated cells (GRP78 [3]): about 30 fold
Increase of GRP78 protein expression (GRP78 [4]): about five-fold
Increase of CHOP mRNA expression (CHOP [5]): about 14 fold
Increase of CHOP protein expression (CHOP [6]): three-fold

NCCSSCCN [cystamin]
Inhibition of in situ tTG activation induced by ionomycin and p31–43 (intracellular tTG [1]; cystamin 200 µM added 5 min before treatment): inhibited the tTG activation
Effect of cystamin pretreatment on tTG activity induced by ionomycin or p31–43 (intracellular tTG [2]; microplate assay, three experiments in triplicate): significant reduction of tTG activity

LGQQQPFPPQQPY [p31–43]
EC50 of [Ca2+]i increase (Caco-2 cells): 0.2 µg/mL

LPQFEEIRNLALQTLPAM [p229–246]
In situ tTG crosslinking activity (fluorescence of pentylamine-biotin incorporation) (intracellular tTG [1]): fluorescence intensity did not increase

PLIRPLLARPAK [pHTP, irrelevant control peptide, 537–548 region of the human thyroid peroxidase]
In situ tTG crosslinking activity (fluorescence of pentylamine-biotin incorporation) (intracellular tTG [1]): fluorescence intensity did not increase

QLQPFPQPQLPY [p57–68]
EC50 of [Ca2+]i increase (Caco-2 cells): 0.9 µg/mL

QQPQDAVQPF [pCTR, irrelevant control peptide … from durum wheat]
[Ca2+]i increase with respect to the basal value (Caco-2 cells; Caco-2 cells, 20 µg/ml, normal Krebs solution): did not affect
In situ tTG crosslinking activity (fluorescence of pentylamine-biotin incorporation) (intracellular tTG [1]): fluorescence intensity did not increase
